The values that follow come from patent US20230135635A1, “INHIBITORS OF ULK1/2 AND METHODS OF USING SAME” (SALK INSTITUTE FOR BIOLOGICAL STUDIES, priority 2020, published 2023).

SMILES strings stand for the structures.

A word on the IC50: it is the concentration at which inhibition is half-maximal.

One test addresses T1, recombinant human ULK1 protein (1-649) (Homo sapiens, UniProt O75385).
T1 construct: recombinant human ULK1 protein (1-649, SignalChem #U01-11G); purchased SignalChem U01-11G
T1 sequence (O75385 1-649): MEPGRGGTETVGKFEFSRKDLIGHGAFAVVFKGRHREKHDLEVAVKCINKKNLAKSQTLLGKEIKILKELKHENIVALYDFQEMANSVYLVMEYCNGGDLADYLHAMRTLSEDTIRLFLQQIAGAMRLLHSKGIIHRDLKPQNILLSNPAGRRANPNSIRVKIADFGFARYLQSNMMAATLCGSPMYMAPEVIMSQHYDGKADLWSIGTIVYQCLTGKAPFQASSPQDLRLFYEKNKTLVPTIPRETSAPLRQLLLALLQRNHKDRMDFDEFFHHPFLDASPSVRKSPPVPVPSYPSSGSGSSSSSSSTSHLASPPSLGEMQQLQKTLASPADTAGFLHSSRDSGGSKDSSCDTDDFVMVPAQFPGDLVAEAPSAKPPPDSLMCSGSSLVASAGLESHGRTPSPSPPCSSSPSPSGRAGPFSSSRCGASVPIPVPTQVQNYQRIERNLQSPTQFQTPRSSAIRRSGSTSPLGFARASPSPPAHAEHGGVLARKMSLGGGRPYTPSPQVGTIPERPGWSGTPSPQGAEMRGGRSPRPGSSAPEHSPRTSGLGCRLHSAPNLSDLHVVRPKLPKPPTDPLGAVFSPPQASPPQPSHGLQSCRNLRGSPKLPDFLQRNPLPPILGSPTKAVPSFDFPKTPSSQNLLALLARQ
Kind of test: ULK1 inhibition assay (ADP Glo). Particulars: Table 1; 25 uM ATP, MBP substrate, one hour. It counts as biochemical. The procedure:
Illustrative compounds of Formula I and related analogs are shown in Table 1 (along with their respective IC50 values for ULK1 inhibition assays). For ADP Glo assay, IC50s are represented nM, with A representing IC50<1 nM, B representing 10 nM>IC50>1 nM, and C representing IC50>10 nM. NT indicates the compound was not tested. ULK1 inhibition assays were performed in a 5 uL reaction volume containing 2 ug/mL recombinant human ULK1 protein (1-649, SignalChem #U01-11G) and 80 ug/mL myelin basic protein (MBP, Sigma-Aldrich #M1891) in the presence of 25 uM ATP (Sigma-Aldrich A7699). ULK 1 inhibition was assessed after one hour. Compounds were tested in triplicate in a 16-dose IC50 mode with 3-fold serial dilution and a starting dose of 30 uM. Staurosporine, a non-selective protein kinase inhibitor, was used in the assay as a positive control.
According to another embodiment, the present disclosure provides methods of producing the above-defined compounds. The compounds may be synthesized using any suitable techniques. Advantageously, these compounds are conveniently synthesized from readily available starting materials. Synthetic chemistry transformations and methodologies useful in synthesizing the compounds described herein are known in the art and include, for example, those described in R. Larock, Comprehensive Organic Transformations (1989); T. W. Greene and P. G. M. Wuts, Protective Groups in Organic Synthesis, 2d. Ed. (1991); L. Fieser and M. Fieser, Fieser and Fieser's Reagents for Organic Synthesis (1994); and L. Paquette, ed., Encyclopedia of Reagents for Organic Synthesis (1995).). In general, synthesis and measurements of ULK1 inhibitory activity of the compounds described herein was performed using method analogous to those previously described in PCT International Application No. PCT/US2015/046777 which is hereby incorporated by reference in its entirety.
A general note: ADP-Glo first removes unused ATP, then detects ADP through luciferase.
Take `O=C(O)c1cnc(Nc2ccc3c(c2)CCNC3)nc1NC1CC1` [Compound A85]: the IC50 is more than 10 nM.

Regarding `CN1CCC(N2CCc3cc(Nc4ncc(C(F)(F)F)c(NC5CC5)n4)ccc3C2)CC1` [Compound A73], the IC50 was less than 1 nM.

For `CC(=O)N1CCc2ccc(Nc3ncc(C(F)(F)F)c(NC4CC4)n3)cc2C1` [Compound A98], the IC50 lay within 1 to 10 nM.

Take `O=S(=O)(C1CC1)N1CCc2cc(Nc3ncc(C(F)(F)F)c(NC4CC4)n3)ccc2C1` [Compound A116]: the IC50 was in the range of 1 to 10 nM.

As to `CNC(=O)c1ccccc1Oc1nc(Nc2ccc3c(c2)CCN(CCOC)C3)ncc1Cl` [Compound A124, 2-((5-chloro-2-((2-(2-methoxyethyl)-1,2,3,4-tetrahydroisoquinolin-6-yl)amino)pyrimidin-4-yl)oxy)-N-methylbenzamide], the IC50 was more than 10 nM.

Regarding `FC(F)(F)c1cnc(Nc2ccc3c(c2)CCN(Cc2cc[nH]c2)C3)nc1NC1CC1` [Compound A42], the half-maximal inhibitory concentration (IC50) is less than 1 nM.

Consider `CN1CCc2cc(Nc3ncc(C(N)=O)c(NC4CC4)n3)ccc2C1` [Compound A64], for which the IC50 was less than 1 nM.

Regarding `FC(F)(F)c1cnc(Nc2ccc3c(c2)CN(Cc2cncnc2)CC3)nc1NC1CC1` [Compound A108], the IC50 was less than 1 nM.

On to `CN(C)c1ccc(CN2CCc3cc(Nc4ncc(C(F)(F)F)c(NC5CC5)n4)ccc3C2)cc1` [Compound A71], for which the IC50 is less than 1 nM.

In the case of `FC(F)(F)c1cnc(Nc2ccc3c(c2)CCN(CCS)C3)nc1NC1CC1` [Compound A23], the IC50 is less than 1 nM.

Regarding `OCC(O)CN1CCc2cc(Nc3ncc(C(F)(F)F)c(NC4CC4)n3)ccc2C1` (stereo not drawn) [Compound A13], the IC50 was more than 10 nM.

As to `CNCC(=O)N1CCc2cc(Nc3ncc(C(F)(F)F)c(NC4CC4)n3)ccc2C1` [Compound A35], the IC50 was less than 1 nM.

In the case of `COC(=O)CC(=O)N1CCc2ccc(Nc3ncc(C(F)(F)F)c(NC4CC4)n3)cc2C1` [Compound A87], the IC50 fell in the range of 1 to 10 nM.

In the case of `FC(F)(F)c1cnc(Nc2ccc3c(c2)CCN(CC2CCCN2)C3)nc1NC1CC1` (stereo not drawn) [Compound A40], the IC50 fell in the range of 1 to 10 nM.

Take `CC(O)CN1CCc2cc(Nc3ncc(C(F)(F)F)c(NC4CC4)n3)ccc2C1` (stereo not drawn) [Compound A70]: the IC50 was less than 1 nM.

On to `NS(=O)(=O)N1CCc2ccc(Nc3ncc(C(F)(F)F)c(NC4CC4)n3)cc2C1` [Compound A76], for which the IC50 lay in the range of 1 to 10 nM.

With `FC(F)(F)c1cnc(Nc2ccc3c(c2)CCN(C2COC2)C3)nc1NC1CC1` [Compound A9], the IC50 lay within 1 to 10 nM.

Regarding `FC(F)(F)c1cnc(Nc2ccc3c(c2)CCN(Cc2ccncn2)C3)nc1NC1CC1` [Compound A75], the 50% inhibitory concentration (IC50) is less than 1 nM.

Consider `N[C@@H](CO)C(=O)N1CCc2ccc(Nc3ncc(C(F)(F)F)c(NC4CC4)n3)cc2C1` [Compound A96], for which the IC50 is more than 10 nM.

Turning to `CNC(=O)c1ccccc1Nc1nc(Nc2ccc3c(c2)CCN(Cc2ccncn2)C3)ncc1Br` [Compound A146, 2-[5-Bromo-2-(2-pyrimidin-4-ylmethyl-1,2,3,4-tetrahydro-isoquinolin-6-ylamino)-pyrimidin-4-ylamino]-N-methyl-benzamide], the IC50 is more than 10 nM.

For `CN(C)C(=O)CN1CCc2cc(Nc3ncc(C(F)(F)F)c(NC4CC4)n3)ccc2C1` [Compound A74], the IC50 is less than 1 nM.

As for `CNC(=O)c1ccccc1Nc1nc(Nc2ccc3c(c2)C[N+](C)(C)CC3)ncc1Br` [Compound A168, 7-[5-Bromo-4-(2-methylcarbamoyl-phenylamino)-pyrimidin-2-ylamino]-2,2-dimethyl-1,2,3,4-tetrahydro-isoquinolinium; iodide], the half-inhibitory concentration (IC50) is more than 10 nM.

With `CNC(=O)c1ccccc1Nc1nc(Nc2ccc3c(c2)CCN(CC(=O)N2CCOCC2)C3)ncc1Br` [Compound A127, 2-{5-Bromo-2-[2-(2-morpholin-4-yl-2-oxo-ethyl)-1,2,3,4-tetrahydro-isoquinolin-6-ylamino]-pyrimidin-4-ylamino}-N-methyl-benzamide], the IC50 was more than 10 nM.

Regarding `CSCCN1CCc2cc(Nc3ncc(C(F)(F)F)c(NC4CC4)n3)ccc2C1` [Compound A11], the IC50 is less than 1 nM.

Turning to `CN1CCc2cc(Nc3ncc(N)c(NC4CC4)n3)ccc2C1` [Compound A61], the IC50 is more than 10 nM.

With `CNC(=O)c1ccccc1Nc1nc(Nc2ccc3c(c2)CC[N+](C)(C)C3)ncc1Br` [Compound A143, 6-[5-Bromo-4-(2-methylcarbamoyl-phenylamino)-pyrimidin-2-ylamino]-2,2-dimethyl-1,2,3,4-tetrahydro-isoquinolinium; iodide], the IC50 was more than 10 nM.

On to `CC(C)(C)OC(=O)N1CCc2cc(Nc3ncc([N+](=O)O)c(NC4CC4)n3)ccc2C1` [Compound A21], for which the IC50 was more than 10 nM.

Turning to `FC(F)(F)c1cnc(Nc2ccc3c(c2)CCN(Cc2cncnc2)C3)nc1NC1CC1` [Compound A49], the IC50 is less than 1 nM.

For the molecule `O=C(O)C[C@H](NC(=O)OCc1ccccc1)C(=O)N1CCc2cc(Nc3ncc(C(F)(F)F)c(NC4CC4)n3)ccc2C1` (racemic) [Compound A67], the IC50 is less than 1 nM.

For `CS(=O)(=O)CCN1CCc2cc(Nc3ncc(C(F)(F)F)c(NC4CC4)n3)ccc2C1` [Compound A91], the IC50 was 1 to 10 nM.

Take `CNC(=O)c1ccccc1Nc1nc(Nc2ccc3c(c2)CCN(C(=O)[C@@H](N)CO)C3)ncc1Br` (racemic) [Compound A139, 2-{2-[2-(2-Amino-3-hydroxy-propionyl)-1,2,3,4-tetrahydro-isoquinolin-6-ylamino]-5-bromo-pyrimidin-4-ylamino}-N-methyl-benzamide]: the IC50 was more than 10 nM.

The test is the same for the next values; noted with them: Table 2.
For `CNC(=O)c1ccccc1Oc1nc(Nc2cc(F)c(F)c(F)c2)ncc1Br` [Compound B1], the IC50 is more than 1000 nM.

Take `COC(=O)c1ccc(Nc2ncc(Br)c(Oc3ccccc3C(=O)OC)n2)cc1` [Compound B43]: the IC50 is more than 1000 nM.

For the molecule `COC(=O)c1ccccc1Oc1nc(Nc2ccc(N)cc2)ncc1Br` [Compound B37], the IC50 lay within 100 to 1000 nM.

Regarding `COC(=O)c1ccccc1Oc1nc(Nc2ccc(SC)cc2)ncc1Br` [Compound B32], the IC50 was more than 1000 nM.

As for `COC(=O)c1ccccc1Oc1nc(Nc2ccc3[nH]ncc3c2)ncc1Br` [Compound B26], the IC50 was 100 to 1000 nM.

For the molecule `COC(=O)c1ccccc1Oc1nc(Nc2ccc(C(F)(F)F)cc2)ncc1Br` [Compound B42], the IC50 is more than 1000 nM.

As for `COc1cc(Nc2ncc(Br)c(Oc3ccccc3C(=O)N(C)CC(C)(C)O)n2)cc(OC)c1OC` [Compound B49], the IC50 was more than 1000 nM.

Turning to `COc1cc(Nc2ncc(Br)c(Oc3ccccc3C(=O)O)n2)cc(OC)c1OC` [Compound B4], the IC50 lay within 100 to 1000 nM.

Take `COc1cc(Nc2ncc(Br)c(Oc3ccccc3C(=O)N(C)CC#N)n2)cc(OC)c1OC` [Compound B45]: the IC50 was in the range of 100 to 1000 nM.

The same test, now with this note: Table 3.
As for `CNC(=O)c1ccccc1Nc1nc(Nc2ccc(OC)c(OC)c2)ncc1Br` [Compound E16, 2-((5-Bromo-2-((3,4-dimethoxyphenyl)amino)pyrimidin-4-yl)amino)-N-methylbenzamide], the IC50 fell in the range of 5 to 100 nM.

For `CNC(=O)c1ccccc1Nc1nc(Nc2cccc(OC)c2)ncc1Br` [Compound E14, 2-((5-Bromo-2-((3-methoxyphenyl)amino)pyrimidin-4-yl)amino)-N-methylbenzamide], the IC50 is 5 to 100 nM.

With `COc1cc(Nc2ncc(Br)c(Nc3ccccc3CNCC(N)=O)n2)cc(OC)c1OC` [Compound C25], the IC50 lay within 5 to 100 nM.

Regarding `CN1CCN(c2ccc(Nc3ncc(Br)c(Nc4ccccc4CO)n3)cc2)CC1` [Compound C9], the IC50 is less than 5 nM.

Turning to `OCc1ccccc1Nc1nc(Nc2ccc(OC(F)F)cc2)ncc1Br` [Compound C8], the IC50 lay within 5 to 100 nM.

`COc1cc(Nc2ncc(C(F)(F)F)c(Nc3ccccc3CO)n2)cc(OC)c1OC` [Compound C3]: the concentration for half-maximal inhibition (IC50) was less than 5 nM.

As for `COC(=O)c1ccccc1Nc1nc(Nc2cc(OC)c(OC)c(OC)c2)ncc1Br` [Compound E1], the IC50 was less than 5 nM.

For the molecule `COc1cc(Nc2ncc(Br)c(Nc3ccccc3COC(C)=O)n2)cc(OC)c1OC` [Compound C17], the half-maximal inhibitory concentration (IC50) lay in the range of 5 to 100 nM.
